Source: ChEMBL document CHEMBL1201862, “PubChem BioAssay data set” (2004)
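Each compound was tested at five concentrations against cells in 96-well plates for 48 hours. GI50 = concentration required for 50% inhibition of growth.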 The source made the active and inactive calls. Cut-off read from the data, not from the text of the source: active = GI50 up to about 1.1 µM and inactive = higher.

Key:
Assay in all cases: NCI-60 cell line screen, 48 h
[1] = system: SR
[2] = system: UACC-257
[3] = system: NCI-H522
[4] = system: KM12
[5] = system: A549
[6] = system: NCI-H226
[7] = system: OVCAR-4
[8] = system: SF-539
[9] = system: NCI-H460
[10] = system: COLO 205
[11] = system: OVCAR-5
[12] = system: NCI-H23
[13] = system: Malme-3M
[14] = system: SF-295
[15] = system: A498

Structure (SMILES)	GI50 [1]	GI50 [2]	GI50 [3]	GI50 [4]	GI50 [5]	GI50 [6]	GI50 [7]	GI50 [8]	GI50 [9]	GI50 [10]	GI50 [11]	GI50 [12]	GI50 [13]	GI50 [14]	GI50 [15]
Cc1ccc(OCC(=O)N2N=C(c3ccccc3)CC2(O)c2ccccc2)cc1 (stereo not drawn)	9.44 µM (inactive)	> 100 µM (inactive)	> 100 µM (inactive)	99.5 µM (inactive)	20.5 µM (inactive)	25.9 µM (inactive)	18.5 µM (inactive)	43 µM (inactive)	15 µM (inactive)	28.2 µM (inactive)	18.1 µM (inactive)	22.6 µM (inactive)	> 100 µM (inactive)	76 µM (inactive)	–
O=C(NCCOC(=O)CCCCCCCCC(=O)OCCNC(=O)NC(=O)c1cn(Cc2ccccc2)c(=O)[nH]c1=O)NC(=O)c1cn(Cc2ccccc2)c(=O)[nH]c1=O	> 100 µM (inactive)	> 100 µM (inactive)	> 100 µM (inactive)	> 100 µM (inactive)	> 100 µM (inactive)	> 100 µM (inactive)	> 100 µM (inactive)	> 100 µM (inactive)	> 100 µM (inactive)	> 100 µM (inactive)	> 100 µM (inactive)	> 100 µM (inactive)	–	> 100 µM (inactive)	> 100 µM (inactive)
COc1ccc2nc3cccc(C(=O)NCCN(C)C)c3nc2c1	0.264 µM (active)	2.64 µM (inactive)	2.73 µM (inactive)	1.3 µM (inactive)	1.8 µM (inactive)	1.32 µM (inactive)	1.63 µM (inactive)	2.1 µM (inactive)	–	1.75 µM (inactive)	1.51 µM (inactive)	1.41 µM (inactive)	0.571 µM (active)	2.08 µM (inactive)	1.55 µM (inactive)
Cc1ccc(NC(=O)c2cc3cc(/N=N/c4ccc(Br)cc4)ccc3oc2=O)cc1	61 µM (inactive)	> 100 µM (inactive)	> 100 µM (inactive)	47.6 µM (inactive)	> 100 µM (inactive)	> 100 µM (inactive)	> 100 µM (inactive)	–	> 100 µM (inactive)	> 100 µM (inactive)	> 100 µM (inactive)	> 100 µM (inactive)	> 100 µM (inactive)	> 100 µM (inactive)	46.3 µM (inactive)
O=C1C(=O)N(c2ccc(Cl)cc2Cl)C(=O)C(=O)C1c1nc2ccccc2s1	28.2 µM (inactive)	> 100 µM (inactive)	24.5 µM (inactive)	> 100 µM (inactive)	> 100 µM (inactive)	> 74.8 µM (inactive)	> 78.5 µM (inactive)	> 100 µM (inactive)	> 100 µM (inactive)	> 100 µM (inactive)	> 100 µM (inactive)	> 64 µM (inactive)	> 100 µM (inactive)	> 100 µM (inactive)	> 100 µM (inactive)
N#Cc1nn(-c2ccc(Cl)cc2)c(=N)c2c(N)n3nc(-c4ccccc4)cc3nc12	< 0.01 µM (active)	1 µM (active)	–	< 0.01 µM (active)	1 µM (active)	39.7 µM (inactive)	0.857 µM (active)	0.497 µM (active)	1 µM (active)	1 µM (active)	1 µM (active)	0.83 µM (active)	1 µM (active)	0.681 µM (active)	1 µM (active)
COC(=O)c1ncc2c(=O)[nH]c3ccccc3c2c1C(=O)OC	> 100 µM (inactive)	> 100 µM (inactive)	–	> 100 µM (inactive)	> 100 µM (inactive)	> 100 µM (inactive)	> 100 µM (inactive)	> 100 µM (inactive)	22 µM (inactive)	–	> 100 µM (inactive)	> 100 µM (inactive)	> 100 µM (inactive)	> 100 µM (inactive)	> 100 µM (inactive)
CC1(C)OC(=O)[C@@](C)([C@H](O)c2ccccc2)O1	50.6 µM (inactive)	> 100 µM (inactive)	67 µM (inactive)	> 100 µM (inactive)	83.2 µM (inactive)	27.6 µM (inactive)	> 100 µM (inactive)	> 100 µM (inactive)	> 100 µM (inactive)	–	–	> 100 µM (inactive)	28.7 µM (inactive)	> 100 µM (inactive)	> 100 µM (inactive)
O=c1c([Se]c2coc3ccccc3c2=O)coc2ccccc12	4.72 µM (inactive)	17.4 µM (inactive)	18.4 µM (inactive)	11.3 µM (inactive)	6.3 µM (inactive)	14.1 µM (inactive)	16.9 µM (inactive)	11.9 µM (inactive)	3.65 µM (inactive)	16.2 µM (inactive)	16.2 µM (inactive)	15.6 µM (inactive)	17.8 µM (inactive)	2.76 µM (inactive)	19.1 µM (inactive)
CCOCN1COCN/C1=N/C#N	25.8 µM (inactive)	> 100 µM (inactive)	> 100 µM (inactive)	> 100 µM (inactive)	31.8 µM (inactive)	> 100 µM (inactive)	> 100 µM (inactive)	> 100 µM (inactive)	> 100 µM (inactive)	28.3 µM (inactive)	> 100 µM (inactive)	> 100 µM (inactive)	> 100 µM (inactive)	> 100 µM (inactive)	> 100 µM (inactive)
COc1ccc2cc3c4cc(OC)c(OC)cc4ccn3c2c1	> 100 µM (inactive)	> 100 µM (inactive)	> 100 µM (inactive)	> 100 µM (inactive)	> 100 µM (inactive)	> 100 µM (inactive)	> 100 µM (inactive)	> 100 µM (inactive)	> 100 µM (inactive)	> 100 µM (inactive)	> 100 µM (inactive)	> 100 µM (inactive)	> 100 µM (inactive)	> 100 µM (inactive)	> 100 µM (inactive)
CC1=C2C3OC(=O)C(C)C3C(O)C[C@@]2(C)C(=O)CC1 (stereo partly drawn)	> 100 µM (inactive)	> 100 µM (inactive)	> 100 µM (inactive)	> 100 µM (inactive)	> 100 µM (inactive)	> 100 µM (inactive)	> 100 µM (inactive)	> 100 µM (inactive)	> 100 µM (inactive)	> 100 µM (inactive)	> 100 µM (inactive)	–	> 100 µM (inactive)	> 100 µM (inactive)	> 100 µM (inactive)
CCC(=O)OC1CCn2c1nc1c2C(=O)C(C)=C(NC(C)=O)C1=O (stereo not drawn)	1.91 µM (inactive)	1.69 µM (inactive)	1.54 µM (inactive)	1.92 µM (inactive)	2.05 µM (inactive)	1.69 µM (inactive)	0.198 µM (active)	1.75 µM (inactive)	3.22 µM (inactive)	3.52 µM (inactive)	1.92 µM (inactive)	1.76 µM (inactive)	1.61 µM (inactive)	2.23 µM (inactive)	18.4 µM (inactive)
Cc1cc(C)c(C(=O)/C=C/c2ccccc2)c(C)c1	30.5 µM (inactive)	33.8 µM (inactive)	19.1 µM (inactive)	35.2 µM (inactive)	30.2 µM (inactive)	22.8 µM (inactive)	22.8 µM (inactive)	> 10 µM (inactive)	18.7 µM (inactive)	29 µM (inactive)	–	26.4 µM (inactive)	8.02 µM (inactive)	21.8 µM (inactive)	–
